# From patent US5776955A, “Use of unsubstituted and substituted n-(pyrrol-1-yl)pyridinamines as anticonvulsant agents” (Hoechst Marion Roussel, Inc., priority 1996, dated 1998)
# Assays:
# [1] = system: sodium channels; conditions: 25 nM [^3 H]batrachotoxin, rat cortex vesicular preparation, 60 min, 25° C., pH 7.4; read-out: IC50, Inhibition of [^3 H]Batrachotoxin Binding
# [2] = system: mice; assay: Supramaximal electroshock in mice (block of tonic seizure); type: in vivo, mouse (male CD-1); conditions: intraperitoneal, male CD-1 mice
# Method: This procedure is used as to predict anticonvulsant activity of a test compound in vivo by its ability to block a full tonic seizure induced by a supramaximal electroshock stimulation as an indication of efficacy in preventing grand mal seizures. Male CD-1 mice (Charles River) weighing 18-30 grams were housed in accordance with the "NIH Guide to Care and Use of Laboratory Animals" (National Institutes of Health Care Publication 85-23, revised 1985) with a 12 hour light/dark cycle and free access to food and water. On the day of testing, animals are brought to the laboratory and randomly assigned to groups of six for the time course experiments and to test groups of ten for the dose-response experiments. The apparatus used for the test was the Wahlquist Electroshock Stimulator (Model H), which has a power source of 120 volts ac. A current of 15.5 mA lasting for 300 msec was delivered by placing the terminals of the stimulator across the eyes of the animal. This stimulus results in a tonic seizure, defined as a brief period of hindlimb flexion followed by a prolonged period of hindlimb extension. […] Protection is calculated as a normalized percent inhibition relative to a vehicle treated control group. A time course is performed to determine the peak time of drug action and then a dose response performed at the peak time to determine drug potency. Mice are dosed in a randomized fashion using a total of 4 dose groups and one vehicle control group. The ED50 value and 95% confidence limits are calculated by a computerized Litchfield and Wilcoxon analysis. Drugs are prepared dissolved in distilled water and, if insoluble a drop of surfactant is added. Drugs are routinely administered intraperitoneally for this test and given in a dosage volume of 10 ml/kg.
# [3] = system: membrane sodium channels; conditions: Willow and Catterall, 1982; Olsen, 1986; cited from earlier work
structure (smiles),measurement,setting,value
CCCN(c1ccncc1F)n1cc(C)c2cc(O)ccc21 [1-[(3-Fluoro-4-pyridinyl)propylamino]-3-methyl-1H-indol-5-ol],IC50,[1],19 µM
CCCN(c1ccncc1)n1cc(C)c2ccccc21.O=C(O)/C=C\C(=O)O [3-Methyl-N-propyl-N-(4-pyridinyl)-1H-indol-1-amine maleate],ED50,"[2]; Mus musculus, ip, at peak time of drug action, read-out: ED50, inhibition of supramaximal electroshock",14.4 mg/kg
NC(=O)N1c2ccccc2C=Cc2ccccc21 [Carbamazepine],allosteric inhibition of [^3 H]batrachotoxin binding,[3],allosterically inhibit the binding of [^3 H]batrachotoxin to membrane sodium channels
CCCN(c1ccncc1F)n1cc(C)c2ccccc21.Cl [N-(3-Fluoro-4-pyridinyl)-N-propyl-3-methyl-1H-indol-1-amine hydrochloride],"percent inhibition (protection), supramaximal electroshock",[2]; 30 mpk,50%
same,"percent inhibition (protection), supramaximal electroshock",[2]; 60 mpk,50%
